“And” between values parts separate entries of the source, which are not always exact repeats. Equal entries are not always repeated. “Also recorded” adds a separate entry of the source. Where two headings read alike, the source gives them in different places.
Assays:
mKOR [1] = biological target: T1, mKOR (Mus musculus, UniProt P33534); assay: Radioligand competition binding ([125I]IBNtxA), CHO membranes, mKOR; conditions: vs 125IBNtxA (0.1 nM), mean ± SEM
T1 construct: expressed in transfected cells

hMOR [2] = biological target: T2, hMOR (Homo sapiens, UniProt P35372); assay: Tango β-arrestin recruitment assay, hMOR; format: cell-based; conditions: Tango
T2 construct: expressed in transfected cells; host or cells: HEK 293T (ATCC CRL-11268), transient

[3] = biological target: T3, mouse mu opioid receptor (mMOR) (Mus musculus, UniProt P42866); assay: cell-based; format: cell-based
T3 construct: expressed in transfected cells; host or cells: HEK-293T, transient (PEI), with BRET sensor cDNAs

hMOR [4] = biological target: T2, hMOR; assay: cell-based; format: cell-based
hKOR [5] = biological target: T4, hKOR (Homo sapiens, UniProt P41145); assay: Tango β-arrestin recruitment assay, hKOR; format: cell-based; conditions: for Arrestin pEC50±SEM hKOR / EC50: WT-hKOR
T4 construct: expressed in transfected cells; host or cells: HEK 293T (ATCC CRL-11268), transient

hDOR [6] = biological target: T5, hDOR (Homo sapiens, UniProt P41143); assay: cAMP inhibition assay, hDOR; format: cell-based; set-up: expressed in transfected cells
mMOR [7] = biological target: T6, mMOR (Mus musculus, UniProt P42866); assay: [35S]GTPγS functional assay, mMOR; format: biochemical; conditions: for EC50: nM ± SEM
T6 construct: expressed in transfected cells

hDOR [8] = biological target: T5, hDOR; assay: Tango β-arrestin recruitment assay, hDOR; format: cell-based; set-up: expressed in transfected cells; host or cells: HTLA cells expressing TEV fused-beta-Arrestin2
mDOR [9] = biological target: T7, mDOR (Mus musculus, UniProt P32300); assay: Radioligand competition binding ([125I]IBNtxA), CHO membranes, mDOR; conditions: vs 125IBNtxA (0.1 nM), CHO membranes, mean ± SEM
T7 construct: expressed in transfected cells

[10] = biological target: T8, mouse delta opioid receptor (mDOR) (Mus musculus, UniProt P32300); assay: BRET assay, arrestin recruitment, mDOR; format: cell-based; conditions: mDOR, BRET
T8 construct: expressed in transfected cells; host or cells: HEK-293T, transient (PEI), with BRET sensor cDNAs

[11] = biological target: T8, mouse delta opioid receptor (mDOR); assay: BRET assay, G-protein activation, mDOR; format: cell-based
hKOR [12] = biological target: T4, hKOR; assay: cAMP inhibition assay (GloSensor, HEK 293T), hKOR; format: cell-based; conditions: for Bias factor toward G protein, hKOR: cAMP inhibition vs Tango, against U50,488H as control; for EC50: read-out: Gi EC50 hKOR
mKOR [13] = biological target: T1, mKOR; assay: [35S]GTPγS functional assay, mKOR; format: biochemical; conditions: for EC50: nM ± SEM
[14] = biological target: T9, rat kappa opioid receptor (rKOR) (Rattus norvegicus, UniProt P34975); assay: BRET assay, arrestin recruitment, rKOR; format: cell-based; conditions: BRET
T9 construct: expressed in transfected cells; host or cells: HEK-293T, transient (PEI), with BRET sensor cDNAs

mMOR [15] = biological target: T6, mMOR; assay: Radioligand competition binding ([125I]IBNtxA), CHO membranes, mMOR; conditions: vs 125IBNtxA (0.1 nM), mean ± SEM
[16] = biological target: T9, rat kappa opioid receptor (rKOR); assay: BRET assay, G-protein activation, rKOR; format: cell-based; conditions: for EC50: read-out: Gi EC50 rKOR
mDOR [17] = biological target: T7, mDOR; assay: [35S]GTPγS functional assay, mDOR; format: biochemical
[18] = biological target: T3, mouse mu opioid receptor (mMOR); assay: cell-based; format: cell-based; remark: listed apart in the source
Y312W-hKOR [19] = biological target: T10, Y312W-hKOR (Homo sapiens, UniProt P41145, Y312W); assay: cAMP inhibition assay, Y312W-hKOR mutant; format: cell-based; set-up: expressed in transfected cells; host or cells: HEK 293T (inferred from the general cAMP method)
C57BL/6J mice = assay: 55° C. warm-water tail-withdrawal assay; format: in vivo, mouse; conditions: icv, 55° C. tail withdrawal
Procedure: Tail-withdrawal assay The 55° C. warm-water tail-withdrawal assay was conducted in mice as a measure of acute thermal antinociception as described previously (Reilley et al., 2010). Briefly, each mouse was tested for baseline tail-withdrawal latency prior to drug administration. Following drug administration, the latency for each mouse to withdraw the tail was measured every 10 minutes until latency returned to the baseline value. A maximum response time of 15 seconds was utilized to prevent tissue damage. […] Data are reported as percent antinociception, calculated by the equation: % antinociception=100×[(test latency−baseline latency)/(15−baseline latency)]. This was utilized to account for innate variability between mice. Compounds were administered either, […] (IP) or intracerebroventricular (icv) and the analgesic action of compounds was assessed at the peak effect as described previously (Haley and McCormick, 1957). In brief, mice were anesthetized using isoflurane. A small incision was made, and the drug (2 μl/mouse) was injected (using a 10 μL Hamilton syringe fitted to a 27-gauge needle) into the right lateral ventricle at the following coordinates: 2 mm caudal to bregma, 2 mm lateral to sagittal suture, and 2 mm in depth. Mice were tested for analgesia at the peak effect post injection.

Y312W-hKOR [20] = biological target: T10, Y312W-hKOR; assay: Tango-arrestin recruitment assay, Y312W-hKOR mutant; format: cell-based; set-up: expressed in transfected cells; conditions: Tango, compared with wild-type KOR

O=C(N[C@@H]1C=CC2[C@H]3Cc4ccc(O)c5c4[C@@]2(CCN3CC2CC2)[C@H]1O5)c1cccc(I)c1 (some centres unmarked) [MP1104, reference compound]
Ki (mKOR [1]): 0.0064 nM
Arrestin pEC50±SEM hMOR (hMOR [2]): 9.24±0.08
EC50 (hMOR [2]): 0.573 nM
Arrestin Emax hMOR (hMOR [2]; normalized to Emax of DAMGO): 90±2.28
Bias factor toward G-protein, mMOR [3]: 0.1
Gi Emax mMOR [3]: 62±2
Gi pEC50±SEM mMOR [3]: 9.2±0.11
EC50 ([3]; read-out: Gi EC50 mMOR): 0.66 nM
Bias factor toward G protein, hMOR (hMOR [4]): 0.57 and 0.6
Gi Emax hMOR (hMOR [4]): 94±1
Gi pEC50±SEM hMOR (hMOR [4]): 10.13±0.05
EC50 (hMOR [4]; read-out: Gi EC50 hMOR): 0.074 nM
Arrestin pEC50±SEM hKOR (hKOR [5]; Tango): 10.4±0.06
EC50 (hKOR [5]; Tango): 0.0394 nM
Arrestin Emax hKOR (hKOR [5]; Tango, normalized to Emax of U50,488H): 117±2
EC50 (hDOR [6]; hDOR): 0.4 nM
cAMP inhibition pEC50 ± SEM (hDOR [6]; hDOR): 9.4 ± 0.04
cAMP inhibition Emax % ± SEM (hDOR [6]; hDOR, normalized to DPDPE or DADLE): 99 ± 1.1%
EC50 (mMOR [7]; [35S]GTPγS): 0.21 ± 0.03 nM
mMOR Emax (mMOR [7]; [35S]GTPγS, relative to DAMGO): 103 ± 2%
Arrestin recruitment pEC50 ± SEM (hDOR [8]; hDOR, Tango): 8.4 ± 0.06
EC50 (hDOR [8]; hDOR, Tango): 3.73 nM
Arrestin recruitment Emax % ± SEM (hDOR [8]; hDOR, Tango, normalized to DPDPE or DADLE): 189 ± 5.5%
Ki (mDOR [9]): 0.08 ± 0.01 nM
Arrestin recruitment pEC50 ± SEM [10]: 7.6 ± 0.11
EC50 [10]: 26 nM
Arrestin recruitment Emax % ± SEM ([10]; normalized to DPDPE): 40 ± 1.7%
EC50 ([11]; mDOR, BRET): 1.4 nM
G-Protein activation pEC50 ± SEM ([11]; mDOR, BRET): 8.9 ± 0.06
G-Protein activation Emax % ± SEM ([11]; mDOR, BRET, normalized to DPDPE): 91 ± 1.7%
Gi pEC50±SEM hKOR (hKOR [12]; cAMP inhibition): 11.74±0.04
Bias factor toward G protein, hKOR (hKOR [12]): 0.18 and 0.2
Gi Emax hKOR (hKOR [12]; cAMP inhibition, normalized to Emax of U50,488H): 107±1
EC50 (hKOR [12]; cAMP inhibition): 0.00184 nM
EC50 (mKOR [13]; [35S]GTPγS): 0.027 ± 0.002 nM
mKOR Emax (mKOR [13]; [35S]GTPγS, relative to U50,488H): 104 ± 2%
Arrestin pEC50±SEM rKOR [14]: 8.94±0.07
EC50 [14]: 1.14 nM
Arrestin Emax rKOR ([14]; normalized to Emax of U50,488H): 89±2.6
Ki (mMOR [15]): 0.021 nM
Gi pEC50±SEM rKOR ([16]; BRET): 10.14±0.04
Bias factor toward G-protein, rKOR ([16]; BRET assays, against U50,488H as control): 0.23
Gi Emax rKOR ([16]; BRET, normalized to Emax of U50,488H): 93±1
EC50 ([16]; BRET): 0.073 nM
EC50 (mDOR [17]; [35S]GTPγS, nM ± SEM): 0.41 ± 0.11 nM
mDOR Emax (mDOR [17]; [35S]GTPγS, relative to DPDPE): 88 ± 0%
Arrestin Emax mMOR [18]: 53±1.6
Arrestin pEC50±SEM mMOR [18]: 9.55±0.12
EC50 ([18]; read-out: Arrestin EC50 mMOR): 0.285 nM

N=C(N)NCc1cccc(C(=O)N[C@@H]2CCC3C4Cc5ccc(O)c6c5[C@@]3(CCN4CC3CC3)C2O6)c1 (stereo partly drawn) [MP1208, N-((7R,12bS)-3-(Cyclopropylmethyl)-9-hydroxy-2,3,4,4a,5,6,7,7a-octahydro-1H-4,12-methanobenzofuro[3,2-e]isoquinolin-7-yl)-3-(guanidinomethyl)benzamide]
Ki (mKOR [1]): 0.28 nM
arrestin recruitment at hMOR (hMOR [2]): no recruitment of arrestin was seen; also recorded: no arrestin recruitment was observed
Gi pEC50±SEM mMOR [3]: 8.64±0.29
Emax ([3]; read-out: Gi Emax mMOR): 41 ± 3%
EC50 (hMOR [4]): 1.86 nM
Emax (hMOR [4]; HEK-293T, read-out: Gi Emax hMOR): 42 ± 1.3%
EC50 (hMOR [4]; read-out: Gi EC50 hMOR): 0.008 nM
Gi pEC50±SEM Y312W-hKOR (Y312W-hKOR [19]; cAMP inhibition): 10.44±0.05
Emax (Y312W-hKOR [19]; read-out: Gi Emax Y312W-hKOR): 97 ± 1%
Emax (hKOR [5]): 48 ± 2.4%
Arrestin pEC50±SEM hKOR (hKOR [5]; Tango): 7.79±0.14
EC50 (hKOR [5]; Tango): 16.4 nM
cAMP inhibition pEC50 ± SEM (hDOR [6]; hDOR): 8.6 ± 0.13
Emax (hDOR [6]; read-out: cAMP inhibition Emax % ± SEM): 39 ± 1.8%
Emax (mMOR [7]): 54 ± 0.7%
EC50 (mMOR [7]; [35S]GTPγS): 1.1 nM and 1.13 nM
Arrestin recruitment pEC50 ± SEM (hDOR [8]; hDOR, Tango): 5.5 ± 0.27
EC50 (hDOR [8]; hDOR, Tango): 3620 nM
Emax (hDOR [8]; read-out: Arrestin recruitment Emax % ± SEM): 62 ± 16.7%
Ki (mDOR [9]): 19.3 nM
EC50 ([11]; mDOR, BRET): 26.6 nM
G-Protein activation pEC50 ± SEM ([11]; mDOR, BRET): 7.6 ± 0.20
Emax ([11]; read-out: G-Protein activation Emax % ± SEM): 58 ± 3.3%
antinociceptive ED50 (95% CI) (C57BL/6J mice): 19.8 (12.6-34.0) nmol and 19.8 nmol
Emax (hKOR [12]; HEK-293T, read-out: Gi Emax hKOR): 96 ± 1.9%
Gi pEC50±SEM hKOR (hKOR [12]; cAMP inhibition): 9.9±0.07
Bias factor toward G protein, hKOR (hKOR [12]): 23
EC50 (hKOR [12]; cAMP inhibition): 0.14 nM
Emax (mKOR [13]): 43 ± 0.8%
EC50 (mKOR [13]; [35S]GTPγS): 1.4 nM and 1.36 nM
arrestin recruitment at rKOR [14]: no recruitment of βarrestin-2; also recorded: no arrestin recruitment was observed
arrestin recruitment at Y312W-hKOR (Y312W-hKOR [20]): further reduction of arrestin recruitment; also recorded: reduced arrestin measurement
Ki (mMOR [15]): 0.34 ± 0.01 nM
Gi pEC50±SEM rKOR ([16]; BRET): 8.97±0.29
EC50 ([16]; BRET): 1.1 nM
Emax ([16]; read-out: Gi Emax rKOR): 40 ± 2.4%
Emax (mDOR [17]): 10 to 15%
efficacy at mDOR (mDOR [17]; [35S]GTPγS): only weak efficacy
IC50 (mDOR [17]; [35S]GTPγS, antagonism vs 100 nM agonist): 11.4 ± 0.3 nM
arrestin recruitment at mMOR [18]: no recruitment of βarrestin-2; also recorded: no arrestin recruitment was observed

Reference: patent publication US11613547B2 (priority 2019, dated 2023)
